# Reference: patent publication US9999619B2, “Piperidin-4-yl azetidine derivatives as JAK1 inhibitors” (Incyte Corporation, priority 2010, dated 2018)
# Legend:
# Assay type in all cases: biochemical
# [1] = target: human JAK1 (a.a. 837-1142) (Homo sapiens, UniProt P23458); test: In vitro JAK kinase assay (HTRF, phosphorylation of a biotinylated peptide), JAK1; details: measured at 1 mM ATP
# Outline: (§1)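 Phosphorylation of a biotinylated peptide by purified His-tagged JAK catalytic domains (insect-cell baculovirus expression) ran 1 hr at room temperature. After stopping with EDTA, Eu-Py20 and SA-APC were bound for 40 minutes and HTRF measured.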
# [2] = target: human JAK1 (a.a. 837-1142); test: as above; details: ratio of JAK2 IC50 to JAK1 IC50, measured at 1 mM ATP
# Outline: as §1
# [3] = target: Jak2 (a.a. 828-1132) (Homo sapiens (Human), UniProt O60674); test: In vitro JAK kinase assay (HTRF, phosphorylation of a biotinylated peptide), JAK2; details: measured at 1 mM ATP
# Outline: as §1
# Jak2 (a.a. 828-1132), sequence (O60674 828-1132): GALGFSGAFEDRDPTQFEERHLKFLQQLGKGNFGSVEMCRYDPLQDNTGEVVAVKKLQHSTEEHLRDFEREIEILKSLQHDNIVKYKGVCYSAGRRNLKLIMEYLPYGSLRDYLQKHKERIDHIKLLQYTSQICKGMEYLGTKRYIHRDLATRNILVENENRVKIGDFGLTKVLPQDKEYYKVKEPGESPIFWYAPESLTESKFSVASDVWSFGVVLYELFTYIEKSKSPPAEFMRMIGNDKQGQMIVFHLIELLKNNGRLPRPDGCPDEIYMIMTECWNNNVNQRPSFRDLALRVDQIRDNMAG
IC50 [1],IC50 Ratio JAK2/JAK1 [2],IC50 [3],Structure (SMILES)
≤ 5 nM,4.5,10 to 50 nM,"N#CCC1(n2cc(-c3c(F)cnc4[nH]ccc34)cn2)CN(C2CCN(C(=O)c3ccc(C#N)cc3F)CC2)C1 [Example 317, 4-[(4-{3-(cyanomethyl)-3-[4-(5-fluoro-1H-pyrrolo[2,3-b]pyridin-4-yl)-1H-pyrazol-1-yl]azetidin-1-yl}piperidin-1-yl)carbonyl]-3-fluorobenzonitrile]"
5 to 20 nM,4.7,10 to 50 nM,"N#CCC1(n2cc(-c3c(F)cnc4[nH]ccc34)cn2)CN(C2CCN(C(=O)c3ccc(F)c(C#N)c3)CC2)C1 [Example 318, 5-[(4-{3-(cyanomethyl)-3-[4-(5-fluoro-1H-pyrrolo[2,3-b]pyridin-4-yl)-1H-pyrazol-1-yl]azetidin-1-yl}piperidin-1-yl)carbonyl]-2-fluorobenzonitrile]"
≤ 5 nM,3.0,10 to 50 nM,"N#CCC1(n2cc(-c3c(F)cnc4[nH]ccc34)cn2)CN(C2CCN(C(=O)c3c(F)cncc3F)CC2)C1 [Example 321, {1-[1-(3,5-difluoroisonicotinoyl)piperidin-4-yl]-3-[4-(5-fluoro-1H-pyrrolo[2,3-b]pyridin-4-yl)-1H-pyrazol-1-yl]azetidin-3-yl}acetonitrile]"
≤ 5 nM,4.7,≤ 10 nM,"N#CCC1(n2cc(-c3c(F)cnc4[nH]ccc34)cn2)CN(C2CCN(C(=O)c3ccc(O)c(F)c3)CC2)C1 [Example 322, {1-[1-(3-fluoro-4-hydroxybenzoyl)piperidin-4-yl]-3-[4-(5-fluoro-1H-pyrrolo[2,3-b]pyridin-4-yl)-1H-pyrazol-1-yl]azetidin-3-yl}acetonitrile]"
≤ 5 nM,5.0,≤ 10 nM,"N#CCC1(n2cc(-c3c(F)cnc4[nH]ccc34)cn2)CN(C2CCN(C(=O)c3ccc(O)cc3F)CC2)C1 [Example 323, {1-[1-(2-fluoro-4-hydroxybenzoyl)piperidin-4-yl]-3-[4-(5-fluoro-1H-pyrrolo[2,3-b]pyridin-4-yl)-1H-pyrazol-1-yl]azetidin-3-yl}acetonitrile]"
5 to 20 nM,1.7,10 to 50 nM,"N#CCC1(n2cc(-c3c(F)cnc4[nH]ccc34)cn2)CN(C2CCN(C(=O)c3cc(C(F)(F)F)ncc3Cl)CC2)C1 [Example 326, {1-{1-[5-chloro-2-(trifluoromethyl)isonicotinoyl]piperidin-4-yl}-3-[4-(5-fluoro-1H-pyrrolo[2,3-b]pyridin-4-yl)-1H-pyrazol-1-yl]azetidin-3-yl}acetonitrile]"
≤ 5 nM,12.9,10 to 50 nM,"N#CCC1(n2cc(-c3c(F)cnc4[nH]ccc34)cn2)CN(C2CCN(C(=O)Nc3ccc(F)cc3C(F)(F)F)CC2)C1 [Example 328, 4-{3-(Cyanomethyl)-3-[4-(5-fluoro-1H-pyrrolo[2,3-b]pyridin-4-yl)-1H-pyrazol-1-yl]azetidin-1-yl}-N-[4-fluoro-2-(trifluoromethyl)phenyl]piperidine-1-carboxamide]"
5 to 20 nM,4.5,50 to 100 nM,"N#CCC1(n2cc(-c3c(F)cnc4[nH]ccc34)cn2)CN(C2CCN(C(=O)Nc3ncccc3C(F)(F)F)CC2)C1 [Example 329, 4-{3-(cyanomethyl)-3-[4-(5-fluoro-1H-pyrrolo[2,3-b]pyridin-4-yl)-1H-pyrazol-1-yl]azetidin-1-yl}-N-[3-(trifluoromethyl)pyridin-2-yl]piperidine-1-carboxamide]"
20 to 30 nM,4.3,> 100 nM,"N#CCC1(n2cc(-c3c(C#N)cnc4[nH]ccc34)cn2)CN(C2CCN(C(=O)c3ccc(C#N)c(F)c3)CC2)C1 [Example 334, 4-{1-[1-[1-(4-cyano-3-fluorobenzoyl)piperidin-4-yl]-3-(cyanomethyl)azetidin-3-yl]-1H-pyrazol-4-yl}-1H-pyrrolo[2,3-b]pyridine-5-carbonitrile]"
≤ 5 nM,2.4,≤ 10 nM,"N#CCC1(n2cc(-c3c(C#N)cnc4[nH]ccc34)cn2)CN(C2CCN(C(=O)c3cc(Br)ccc3Br)CC2)C1 [Example 335, 4-(1-{3-(cyanomethyl)-1-[1-(2,5-dibromobenzoyl)piperidin-4-yl]azetidin-3-yl}-1H-pyrazol-4-yl)-1H-pyrrolo[2,3-b]pyridine-5-carbonitrile]"
≤ 5 nM,2.9,≤ 10 nM,"N#CCC1(n2cc(-c3c(C#N)cnc4[nH]ccc34)cn2)CN(C2CCN(C(=O)c3cc(Br)cc(Br)c3)CC2)C1 [Example 336, 4-(1-{3-(cyanomethyl)-1-[1-(3,5-dibromobenzoyl)piperidin-4-yl]azetidin-3-yl}-1H-pyrazol-4-yl)-1H-pyrrolo[2,3-b]pyridine-5-carbonitrile]"
5 to 20 nM,7.4,50 to 100 nM,"N#CCC1(n2cc(-c3c(C#N)cnc4[nH]ccc34)cn2)CN(C2CCN(C(=O)c3cc(C#N)cc(C#N)c3)CC2)C1 [Example 338, 5-[(4-{3-(cyanomethyl)-3-[4-(5-cyano-1H-pyrrolo[2,3-b]pyridin-4-yl)-1H-pyrazol-1-yl]azetidin-1-yl}piperidin-1-yl)carbonyl]isophthalonitrile]"
20 to 30 nM,1.4,10 to 50 nM,"N#CCC1(n2cc(-c3c(C#N)cnc4[nH]ccc34)cn2)CN(C2CCN(C(=O)c3c(F)cc(C#N)cc3F)CC2)C1 [Example 340, 4-{1-[1-[1-(4-cyano-2,6-difluorobenzoyl)piperidin-4-yl]-3-(cyanomethyl)azetidin-3-yl]-1H-pyrazol-4-yl}-1H-pyrrolo[2,3-b]pyridine-5-carbonitrile]"

# The next lines start with the compound.
Structure (SMILES),IC50 [1],IC50 Ratio JAK2/JAK1 [2],IC50 [3]
"N#CCC1(n2cc(-c3c(F)cnc4[nH]ccc34)cn2)CN(C2CCN(C(=O)c3cc(F)cc(C#N)c3)CC2)C1 [Example 316, 3-[(4-{3-(cyanomethyl)-3-[4-(5-fluoro-1H-pyrrolo[2,3-b]pyridin-4-yl)-1H-pyrazol-1-yl]azetidin-1-yl}piperidin-1-yl)carbonyl]-5-fluorobenzonitrile]",≤ 5 nM,9.5,10 to 50 nM
"N#CCC1(n2cc(-c3c(F)cnc4[nH]ccc34)cn2)CN(C2CCN(C(=O)c3ccc(F)cn3)CC2)C1 [Example 319, {1-{1-[(5-fluoropyridin-2-yl)carbonyl]piperidin-4-yl}-3-[4-(5-fluoro-1H-pyrrolo[2,3-b]pyridin-4-yl)-1H-pyrazol-1-yl]azetidin-3-yl}acetonitrile]",≤ 5 nM,4.0,10 to 50 nM
"N#CCC1(n2cc(-c3c(F)cnc4[nH]ccc34)cn2)CN(C2CCN(C(=O)c3ccncc3F)CC2)C1 [Example 320, {1-[1-(3-fluoroisonicotinoyl)piperidin-4-yl]-3-[4-(5-fluoro-1H-pyrrolo[2,3-b]pyridin-4-yl)-1H-pyrazol-1-yl]azetidin-3-yl}acetonitrile]",≤ 5 nM,2.8,10 to 50 nM
"N#CCC1(n2cc(-c3c(F)cnc4[nH]ccc34)cn2)CN(C2CCN(C(=O)C3CCC(F)(F)CC3)CC2)C1 [Example 327, {1-{1-[(4,4-difluorocyclohexyl)carbonyl]piperidin-4-yl}-3-[4-(5-fluoro-1H-pyrrolo[2,3-b]pyridine-4-yl)-1H-pyrazol-1-yl]azetidin-3-yl}acetonitrile]",5 to 20 nM,4.1,50 to 100 nM
"N#CCC1(n2cc(-c3c(F)cnc4[nH]ccc34)cn2)CN(C2CCN(C(=O)Nc3cnccc3C(F)(F)F)CC2)C1 [Example 330, 4-{3-(cyanomethyl)-3-[4-(5-fluoro-1H-pyrrolo[2,3-b]pyridin-4-yl)-1H-pyrazol-1-yl]azetidin-1-yl}-N-[4-(trifluoromethyl)pyridin-3-yl]piperidine-1-carboxamide]",≤ 5 nM,6.7,10 to 50 nM
"N#CCC1(n2cc(-c3c(F)cnc4[nH]ccc34)cn2)CN(C2CCN(C(=O)Nc3ccncc3C(F)(F)F)CC2)C1 [Example 331, 4-{3-(cyanomethyl)-3-[4-(5-fluoro-1H-pyrrolo[2,3-b]pyridin-4-yl)-1H-pyrazol-1-yl]azetidin-1-yl}-N-[3-(trifluoromethyl)pyridin-4-yl]piperidine-1-carboxamide]",≤ 5 nM,10.8,10 to 50 nM
"N#CCC1(n2cc(-c3c(C#N)cnc4[nH]ccc34)cn2)CN(C2CCN(C(=O)c3ccnc(C(F)(F)F)c3F)CC2)C1 [Example 332, 4-[1-(3-(Cyanomethyl)-1-{1-[3-fluoro-2-(trifluoromethyl)isonicotinoyl]piperidin-4-yl}azetidin-3-yl)-1H-pyrazol-4-yl]-1H-pyrrolo[2,3-b]pyridine-5-carbonitrile]",≤ 5 nM,19.3,50 to 100 nM
"N#CCC1(n2cc(-c3c(C#N)cnc4[nH]ccc34)cn2)CN(C2CCN(C(=O)c3cc(F)cc(C#N)c3)CC2)C1 [Example 333, 4-{1-[1-[1-(3-cyano-5-fluorobenzoyl)piperidin-4-yl]-3-(cyanomethyl)azetidin-3-yl]-1H-pyrazol-4-yl}-1H-pyrrolo[2,3-b]pyridine-5-carbonitrile]",5 to 20 nM,8.8,50 to 100 nM
"N#CCC1(n2cc(-c3c(C#N)cnc4[nH]ccc34)cn2)CN(C2CCN(C(=O)c3cc(C#N)ccc3C#N)CC2)C1 [Example 337, 2-[(4-{3-(cyanomethyl)-3-[4-(5-cyano-1H-pyrrolo[2,3-b]pyridin-4-yl)-1H-pyrazol-1-yl]azetidin-1-yl}piperidin-1-yl)carbonyl]terephthalonitrile]",5 to 20 nM,6.0,10 to 50 nM
